# Laboratory results reported in ChEMBL document CHEMBL3885861, “Open TG-GATES”.
# Organism: Rattus norvegicus
# Assay: Open TG-GATES - Regimen: Single
# Type: toxicity, organism-based, Sprague-Dawley
# Parameters: regimen Single, gender Male, age 6 weeks
# Settings: in vivo, po, 0 mg/kg, route gavage, dose level Control; for APTT / Bas / Eos / Fbg / Hb / Ht / Lym / MCH / MCHC / MCV / Mono / PT / Plat / RBC / Ret / WBC: tissue Blood; for KIDNEY_L / KIDNEY_R / KIDNEY_TOTAL: tissue Kidney; for LIVER: tissue Liver
smiles,measurement,setting,value
C#C[C@]1(O)CC[C@H]2[C@@H]3CCc4cc(O)ccc4[C@H]3CC[C@@]21C [ETHINYL ESTRADIOL],TERMINAL_BW,3 h,196.6 g
same,APTT,3 h,16.9 s
same,Bas,3 h,0%
same,Eos,3 h,0.8%
same,Fbg,3 h,256 mg/dL
same,Hb,3 h,13.2 g/dL
same,Ht,3 h,39.9%
same,Lym,3 h,79.4%
same,MCH,3 h,21.8 pg
same,MCHC,3 h,33.1%
same,MCV,3 h,66 fL
same,Mono,3 h,3.8%
same,PT,3 h,12.2 s
same,Plat,3 h,117 x10_4/uL
same,RBC,3 h,604.8 x10_4/ul
same,Ret,3 h,9.9%
same,WBC,3 h,82.1 x10_2/uL
same,KIDNEY_L,3 h,0.8 g
same,KIDNEY_R,3 h,0.8 g
same,KIDNEY_TOTAL,3 h,1.7 g
same,LIVER,3 h,8.6 g
same,ALP,"3 h, tissue Plasma",1558.8 IU/L
same,ALT,"3 h, tissue Plasma",44 IU/L
same,AST,"3 h, tissue Plasma",77.6 IU/L
same,BUN,"3 h, tissue Plasma",10.6 mg/dL
same,CRE,"3 h, tissue Plasma",0.2 mg/dL
same,Ca,"3 h, tissue Plasma",11.3 mg/dL
same,Cl,"3 h, tissue Plasma",107 meq/L
same,DBIL,"3 h, tissue Plasma",0.02 mg/dL
same,IP,"3 h, tissue Plasma",8.6 mg/dL
same,K,"3 h, tissue Plasma",4 meq/L
same,LDH,"3 h, tissue Plasma",56 IU/L
same,Na,"3 h, tissue Plasma",142.4 meq/L
same,PL,"3 h, tissue Plasma",157.6 mg/dL
same,RALB,"3 h, tissue Plasma",2.6 g/dL
same,TBIL,"3 h, tissue Plasma",0.044 mg/dL
same,TC,"3 h, tissue Plasma",86.2 mg/dL
same,TP,"3 h, tissue Plasma",5.5 g/dL
same,gamma-GTP,"3 h, tissue Plasma",1.2 IU/L
same,TERMINAL_BW,6 h,194 g
same,APTT,6 h,16.2 s
same,Bas,6 h,0%
same,Eos,6 h,1%
same,Fbg,6 h,265.8 mg/dL
same,Hb,6 h,13.2 g/dL
same,Ht,6 h,39.3%
same,Lym,6 h,75%
same,MCHC,6 h,33.6%
same,MCV,6 h,63.4 fL
same,PT,6 h,12.3 s
same,Plat,6 h,123.8 x10_4/uL
same,RBC,6 h,620.2 x10_4/ul
same,Ret,6 h,9.8%
same,WBC,6 h,90.8 x10_2/uL
same,KIDNEY_L,6 h,0.8 g
same,KIDNEY_R,6 h,0.8 g
same,KIDNEY_TOTAL,6 h,1.7 g
same,LIVER,6 h,7.6 g
same,ALP,"6 h, tissue Plasma",1686.2 IU/L
same,ALT,"6 h, tissue Plasma",42 IU/L
same,AST,"6 h, tissue Plasma",79.2 IU/L
same,BUN,"6 h, tissue Plasma",7.6 mg/dL
same,CRE,"6 h, tissue Plasma",0.2 mg/dL
same,Ca,"6 h, tissue Plasma",10.8 mg/dL
same,Cl,"6 h, tissue Plasma",109.4 meq/L
same,DBIL,"6 h, tissue Plasma",0.012 mg/dL
same,IP,"6 h, tissue Plasma",10.2 mg/dL
same,K,"6 h, tissue Plasma",4 meq/L
same,LDH,"6 h, tissue Plasma",53.6 IU/L
same,Na,"6 h, tissue Plasma",144.6 meq/L
same,PL,"6 h, tissue Plasma",122.6 mg/dL
same,RALB,"6 h, tissue Plasma",2.6 g/dL
same,TBIL,"6 h, tissue Plasma",0.046 mg/dL
same,TC,"6 h, tissue Plasma",75.6 mg/dL
same,TP,"6 h, tissue Plasma",5.4 g/dL
same,gamma-GTP,"6 h, tissue Plasma",1 IU/L
same,TERMINAL_BW,9 h,195.8 g
same,Bas,9 h,0%
same,Eos,9 h,1%
same,Fbg,9 h,265.2 mg/dL
same,Hb,9 h,12.8 g/dL
same,Ht,9 h,38%
same,Lym,9 h,72.2%
same,MCH,9 h,21.8 pg
same,MCHC,9 h,33.6%
same,MCV,9 h,64.8 fL
same,PT,9 h,12.4 s
same,Plat,9 h,119.3 x10_4/uL
same,RBC,9 h,588 x10_4/ul
same,Ret,9 h,9.5%
same,WBC,9 h,73.4 x10_2/uL
same,KIDNEY_L,9 h,0.9 g
same,KIDNEY_R,9 h,0.9 g
same,KIDNEY_TOTAL,9 h,1.7 g
same,LIVER,9 h,7 g
same,ALP,"9 h, tissue Plasma",1662.8 IU/L
same,ALT,"9 h, tissue Plasma",42 IU/L
same,AST,"9 h, tissue Plasma",75 IU/L
same,BUN,"9 h, tissue Plasma",9.2 mg/dL
same,CRE,"9 h, tissue Plasma",0.2 mg/dL
same,Ca,"9 h, tissue Plasma",10.5 mg/dL
same,Cl,"9 h, tissue Plasma",107.8 meq/L
same,DBIL,"9 h, tissue Plasma",0.01 mg/dL
same,IP,"9 h, tissue Plasma",10.7 mg/dL
same,K,"9 h, tissue Plasma",3.8 meq/L
same,LDH,"9 h, tissue Plasma",42 IU/L
same,Na,"9 h, tissue Plasma",144 meq/L
same,PL,"9 h, tissue Plasma",125.4 mg/dL
same,RALB,"9 h, tissue Plasma",2.5 g/dL
same,TBIL,"9 h, tissue Plasma",0.04 mg/dL
same,TC,"9 h, tissue Plasma",77 mg/dL
same,TP,"9 h, tissue Plasma",5.2 g/dL
same,gamma-GTP,"9 h, tissue Plasma",1.2 IU/L
same,TERMINAL_BW,24 h,203.2 g
same,APTT,24 h,16.4 s
same,Bas,24 h,0%
same,Eos,24 h,1%
same,Fbg,24 h,245.4 mg/dL
same,Hb,24 h,12.9 g/dL
same,Ht,24 h,38.3%
same,Lym,24 h,76.2%
same,MCH,24 h,21.6 pg
same,MCHC,24 h,33.6%
same,MCV,24 h,64.4 fL
same,Mono,24 h,3.6%
same,PT,24 h,12.5 s
same,Plat,24 h,112.7 x10_4/uL
same,RBC,24 h,594.4 x10_4/ul
same,Ret,24 h,8.5%
same,WBC,24 h,103.2 x10_2/uL
same,KIDNEY_L,24 h,0.9 g
same,KIDNEY_R,24 h,0.9 g
same,KIDNEY_TOTAL,24 h,1.7 g
same,LIVER,24 h,8.9 g
same,ALP,"24 h, tissue Plasma",1908.8 IU/L
same,ALT,"24 h, tissue Plasma",52.2 IU/L
same,AST,"24 h, tissue Plasma",78.6 IU/L
same,BUN,"24 h, tissue Plasma",13.8 mg/dL
same,CRE,"24 h, tissue Plasma",0.2 mg/dL
same,Cl,"24 h, tissue Plasma",104.8 meq/L
same,DBIL,"24 h, tissue Plasma",0.01 mg/dL
same,GLC,"24 h, tissue Plasma",194.2 mg/dL
same,IP,"24 h, tissue Plasma",7.7 mg/dL
same,LDH,"24 h, tissue Plasma",62.4 IU/L
same,Na,"24 h, tissue Plasma",141 meq/L
same,PL,"24 h, tissue Plasma",136.2 mg/dL
same,RALB,"24 h, tissue Plasma",2.5 g/dL
same,TBIL,"24 h, tissue Plasma",0.034 mg/dL
